Holding throughout (type): toxicity, cell-based
Data set [1] in a line: MMV: MTT Cytotoxicity Assay Day 3 pi, U87-CD4-CCR5 cells, % cell death @ 5mM compound. To be noted: human, u87-cd4-ccr5, 5000 µM.
Data set [2] can be described thus: MMV: MTT Cytotoxicity Assay Day 3 pi, U87-CD4-CXCR4 cells, % cell death @ 5mM compound. The note with it: human, u87-cd4-cxcr4, 5000 µM.
Data set [3] in a line: MMV: MTT Cytotoxicity Assay Day 7 pi of Assay #6 (compound washed out Day 1 pi), U87-CD4-CCR5 cells, % cell death @ 5mM compound. To be noted: human, u87-cd4-ccr5, 5000 µM.
A short description of data set [4]: MMV: MTT Cytotoxicity Assay Day 7 pi of Assay #7 (compound washed out Day 1 pi), U87-CD4-CXCR4 cells, % cell death @ 5mM compound. To be noted: human, u87-cd4-cxcr4, 5000 µM.
The nature of data set [5]: MMV: MTT Cytotoxicity Assay Day 7 pi of Assay #10 (NO washout), U87-CD4-CCR5 cells, % cell death @ 5mM compound. To be noted: human, u87-cd4-ccr5, 5000 µM.
Data set [6] is described as follows: MMV: MTT Cytotoxicity Assay Day 7 pi of Assay #11 (NO washout), U87-CD4-CXCR4 cells, % cell death @ 5mM compound. To be noted: human, u87-cd4-cxcr4, 5000 µM.

Results on 22 compounds are retold here after ChEMBL document CHEMBL3301472, “MMV Malaria Box HIV and cytotoxicity screening”.

With `COc1ccc(C(=O)C(CCC(CNC(C)(C)C)C(=O)c2ccc(OC)cc2)CNC(C)(C)C)cc1` (configuration not stated), the “% Cell Death” value in data set [1] is listed as 94; in data set [2] it was 100; in data set [3], 27; in data set [4], 75; in data set [5], 137; in data set [6], 105.
For the compound `COc1cccc(Nc2nc(N)c3ccccc3n2)c1.Cl`, the “% Cell Death” value is recorded as -31 in data set [1]; 22 in data set [2]; 13 in data set [3]; -5 in data set [4]; -2 in data set [5]; -77 in data set [6].
For the compound `Cc1cc(N2CCN(C3CCCC3)CC2)n2c(nc3ccccc32)c1C#N`, the “% Cell Death” value is on record as 35 in data set [1]; 44 in data set [2]; 48 in data set [3]; -24 in data set [4]; 35 in data set [5]; -3 in data set [6].
Consider `CCOC(=O)C1(Cc2ccccc2)CCN(Cc2cccc(OC)c2O)CC1`, for which the “% Cell Death” value in data set [1] is recorded as 0; in data set [2] it was 29; in data set [3] it was 15; in data set [4], -16; in data set [5] it was 21; in data set [6], -36.
With `O=C(NC1CCN(Cc2ccccc2)CC1)c1cc2nc(-c3ccc(Cl)s3)cc(C(F)(F)F)n2n1`, the “% Cell Death” value in data set [1] was -2; in data set [2] it was 31; in data set [3], -12; in data set [4], -15; in data set [5], 46; in data set [6] it was 11.
Take `COCCN(C(=O)Cc1cccs1)C(C(=O)NCc1ccc(OC)cc1)c1ccc(C(C)C)cc1` (configuration not stated): the “% Cell Death” value is 13 in data set [1]; 12 in data set [2]; 16 in data set [3]; -10 in data set [4]; 140 in data set [5]; 68 in data set [6].
As for `CCOc1ccc(CCNC(=O)c2cccs2)cc1OCC`, the “% Cell Death” value was 45 in data set [1]; 30 in data set [2]; -20 in data set [3]; -3 in data set [4]; 2 in data set [5]; -9 in data set [6].
`O=C(NC(c1ccccc1)c1ccc2cccnc2c1O)c1ccccc1` (configuration not stated): the “% Cell Death” value in data set [1] is -19; in data set [2], 12; in data set [3], 43; in data set [4] it was -26; in data set [5], 122; in data set [6], 39.
With `COc1ccc(C(O)(CCC(C)C)C(CN2CCOCC2)c2ccc(Cl)cc2)cc1.Cl` (configuration not stated), the “% Cell Death” value in data set [1] is listed as 72; in data set [2], 55; in data set [3] it was 48; in data set [4] it was 4; in data set [5] it was 102; in data set [6], 47.
Take `Cl.N=c1n(CCN2CCCCC2)c2ccccc2n1CC(O)c1cccc(Br)c1` (configuration not stated): the “% Cell Death” value is listed as 2 in data set [1]; 27 in data set [2]; 10 in data set [3]; -20 in data set [4]; 11 in data set [5]; 8 in data set [6].
On to `COc1ccc(CNC2CCN(c3ccc(NC(=O)c4cccc(Cl)c4)cc3)CC2)cc1OC`, for which the “% Cell Death” value in data set [1] is on record as -8; in data set [2], -2; in data set [3], 28; in data set [4], -21; in data set [5] it was 11; in data set [6] it was -37.
As to `COc1ccc2c(c1)C1(Nc3ccccc3-c3nc4ccccc4n31)C(=O)N2` (configuration not stated), the “% Cell Death” value in data set [1] is recorded as -75; in data set [2], 13; in data set [3] it was -9; in data set [4], -24; in data set [5] it was 29; in data set [6], 9.
With `O=C(NC1CCCCC1)C(c1cccs1)N(CCc1ccccc1)C(=O)c1ccco1` (configuration not stated), the “% Cell Death” value in data set [1] is on record as 93; in data set [2] it was 54; in data set [3] it was 90; in data set [4], 61; in data set [5], 90; in data set [6] it was 97.
Take `COc1ccc2nc(N)nc(C)c2c1`: the “% Cell Death” value in data set [1] is reported as 15; in data set [2], 34; in data set [3], -35; in data set [4], -3; in data set [5], 17; in data set [6] it was 15.
On to `CCOC(=O)C1=CN(C)C=C(C(=O)OCC)C1c1cc(Br)c(OCC)c(OC)c1`, for which the “% Cell Death” value in data set [1] is 80; in data set [2], 32; in data set [3] it was 37; in data set [4], 99; in data set [5], 103; in data set [6], 6.
In the case of `CCOC(=O)C1CCN(C(=O)CN2C(=O)c3ccccc3C2c2c[nH]c3ccccc23)CC1` (configuration not stated), the “% Cell Death” value in data set [1] is given as 107; in data set [2], 35; in data set [3], 52; in data set [4], 39; in data set [5] it was 109; in data set [6], 112.
Take `Cc1ccc(N2C(=O)C3C(C2=O)C2(c4ccccc4)C(=O)C3(c3ccccc3)C(c3ccccc3)=C2c2ccccc2)cc1` (configuration not stated): the “% Cell Death” value is listed as -31 in data set [1]; 36 in data set [2]; 0 in data set [3]; 5 in data set [4]; 33 in data set [5]; -35 in data set [6].
Consider `O=C(CCl)NCCOc1ccc(Cl)cc1Cl`, for which the “% Cell Death” value in data set [1] is listed as 15; in data set [2], 28; in data set [3], -19; in data set [4] it was -8; in data set [5] it was 12; in data set [6], 6.
On to `COc1ccc(-c2cc3c(nn2)-c2ccccc2C3=O)cc1`, for which the “% Cell Death” value in data set [1] came out at 71; in data set [2] it was 49; in data set [3], 30; in data set [4], 13; in data set [5], 75; in data set [6], 101.
Take `Nc1nc(Nc2cccc(F)c2)nc2ccccc12`: the “% Cell Death” value in data set [1] is 42; in data set [2], 38; in data set [3], -19; in data set [4], -13; in data set [5], 45; in data set [6], 36.
With `CCCCNCC(O)(c1ccc(Cl)cc1)c1ccc(Cl)cc1`, the “% Cell Death” value is 16 in data set [1]; 29 in data set [2]; 23 in data set [3]; -18 in data set [4]; 11 in data set [5]; 27 in data set [6].
As to `CCN(Cc1ccccc1)C1CCN(Cc2cc(Br)ccc2O)CC1.O=C(O)C(=O)O`, the “% Cell Death” value in data set [1] was -5; in data set [2], 27; in data set [3], 6; in data set [4], 0; in data set [5], 20; in data set [6], -25.
